Paper PMC6753678, “Fueling Open Innovation for Malaria Transmission-Blocking Drugs: Hundreds of Molecules Targeting Early Parasite Mosquito Stages” (Frontiers in Microbiology, 2019)
Read-outs that look alike come from different tables or passages of the source.

How the values were obtained:
[1] = tested on: P. berghei ookinete development; settings: for % inhibition, Replicate A / % inhibition, Replicate B: primary screen at 1 μM
HepG2 cells = test: HepG2 cytotoxicity assay; settings: for Pb ODA (this manuscript) HepG2 cytoxicity: HepG2 cytotoxicity listed with the Pb ODA data set (this manuscript); for IC50: read-out: HepG2 cytotoxicity assay IC50, dose response confirmation
Method in brief: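 HepG2 cells, 2,500 per well in MEM with 10% FBS and 1% NEAA, exposed to compounds for 48 h at 37°C, 5% CO2. Viability read by fluorescence; percent inhibition relative to 50 μM doxorubicin and DMSO controls.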

[2] = tested on: 3D7-strain P. falciparum asexual parasites; test: P. falciparum asexual growth inhibition assay (Pf GIA); assay type: cell-based, Plasmodium falciparum; settings: dose response confirmation; read-out: Pf asexual growth inhibition assays IC50
Method in brief: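 Parasites at 0.25% parasitemia, 2% hematocrit in Albumax-supplemented RPMI were exposed to compounds in dose response for 72 h at 37°C under 5% CO2/5% O2. Viability was read as LDH activity (NBT/diaphorase, A650 after freeze-thaw). Percent inhibition was calculated against chloroquine and DMSO controls, mean of three biological replicates.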

[3] = read-out: Pb ODA (this manuscript) IC50, P. berghei ookinete development assay, this manuscript
[4] = read-out: Pb Ookinete development assay IC50, dose response confirmation
[5] = read-out: Pb ODA IC50, this manuscript
[6] = HepG2 values of the three screens unified
[7] = unified HepG2 value across the three screens

Compound | Is compound selective in assay? Pb ODA active? [1] | % inhibition, Replicate A [1] | % inhibition, Replicate B [1] | IC50 [1, 3] | IC50 [1, 4] | Pb ODA (this manuscript) HepG2 cytoxicity (HepG2 cells) | IC50 (HepG2 cells) | IC50 [2] | Is compound selective in assay? Pb ODA active? ([1]; 1: YES, 0: NO) | IC50 [1, 5] | HepG2 cytoxicity (Pb ODA, this manuscript) (HepG2 cells) | Unified cytotox (HepG2 cells; [6]) | Unified cytotox (HepG2 cells; [7])
CNC(=O)c1ccccc1Nc1nc(Nc2ccc(N3CCOCC3)cc2)ncc1Cl.Cl [TCMDC-134144] | 0 (key: 1: YES; 0: NO) | 67.63% | 105.55% | 390 nM | 387 nM | 3.63 µM | 3630 nM | 1990 nM | – | – | – | – | –
COc1ccc2nccc([C@@H](O)CN3CCC(NC(=O)c4cc5ccccc5[nH]4)CC3)c2c1.CS(=O)(=O)O [TCMDC-140780] | – | 48.77% | 68.59% | – | 239 nM | – | 50700 nM | 940 nM | 1 (1: YES) | 240 nM | 50.70 µM | 50.70 µM | –
Cc1ccc(Nc2nc3cc(N(C)c4ccnc(Nc5cccc(CCS(C)(=O)=O)c5)n4)ccc3n2C)cc1.O=C(O)C(F)(F)F [TCMDC-138853] | – | 113.72% | 29.45% | – | 1880 nM | – | 3310 nM | 0.433 nM | 0 (0: NO) | 1880 nM | – | – | 3.31 µM
COc1nc2c(CCN3CC[C@H](NCc4ccc5c(c4)NC(=O)CO5)[C@H](O)C3)c(Cl)cnc2cc1F.Cl [TCMDC-135805] | 1 (key: 1: YES; 0: NO) | 46.55% | 63.06% | – | 770 nM | 12.02 µM | 12000 nM | 1320 nM | – | – | – | – | –
Nc1nc(N)c2c(ccc3c2ccn3Cc2ccc3c(c2)OCO3)n1 [TCMDC-137808] | – | 57.79% | 75.32% | – | 447 nM | – | 32.4 nM | < 0.2 nM | 0 (0: NO) | 450 nM | 0.0324 µM | 0.0324 µM | –
COc1ccc2nc3cc(Cl)ccc3c(NCCCO)c2c1 [TCMDC-124144] | 0 (key: 1: YES; 0: NO) | 19.58% | 67.10% | – | 1300 nM | 7.08 µM | 7080 nM | 210 nM | – | – | – | – | –
O=C(Nc1ccc(OC2CCN(Cc3ccc(F)cc3)C2)c(Cl)c1)c1cccs1.O=C(O)C(F)(F)F (stereo not shown) [TCMDC-133757] | – | 48.09% | 57.60% | – | 1910 nM | – | 25100 nM | 187 nM | 1 (1: YES) | 1910 nM | – | – | 25.12 µM
O=c1nc(C=Cc2ccc(Br)cc2)oc2ccccc12 [TCMDC-123878] | 1 (key: 1: YES; 0: NO) | 55.97% | 32.93% | 2720 nM | 2720 nM | 100.00 µM | 100000 nM | 1730 nM | – | – | – | – | –
COc1ccc(C#Cc2ccc(-c3c(C)[nH]c(C)c(Cl)c3=O)cc2)cc1 [TCMDC-135655] | – | 78.44% | 70.65% | – | 1160 nM | – | 100000 nM | 73 nM | 1 (1: YES) | 1160 nM | – | 100.00 µM | –
COc1ccc2ncc(C#N)c(CCN3CCC(NCc4ccc5c(c4)NC(=O)CO5)CC3)c2c1.Cl [TCMDC-135645] | 1 (key: 1: YES; 0: NO) | 122.09% | 92.16% | 460 nM | 457 nM | 38.90 µM | 38900 nM | 553 nM | – | – | – | – | –
Cl.c1ccc(CN2CCN(CCNc3c4ccccc4nc4ccccc34)CC2)cc1 [TCMDC-137571] | – | 19.05% | 55.37% | – | 2900 nM | – | 24000 nM | 446 nM | 0 (0: NO) | 2890 nM | 23.99 µM | 23.99 µM | –
CCNC(=O)Nc1ccc(-c2cnc(N)c(-c3nc4ccc(OC)cc4[nH]3)c2)cc1 [TCMDC-135321] | – | 44.00% | 70.87% | – | 2330 nM | – | 6680 nM | 364 nM | 0 (0: NO) | 2330 nM | – | – | 6.68 µM
Cc1nc(NC2=NCN(CCCN3CCOCC3)CN2)nc2c(C)cccc12 [TCMDC-125086] | – | 51.18% | 62.28% | 11100 nM | 11100 nM | 100.00 µM | 100000 nM | 1820 nM | – | – | – | – | –
Nc1nc(N)c2c(ccc3c2ccn3Cc2ccccn2)n1 [TCMDC-137980] | – | 50.19% | 73.34% | – | 2430 nM | – | 7.67 nM | 1.15 nM | 0 (0: NO) | – | 0.00767 µM | 0.00767 µM | –
Cc1nc2nc(N)nc(N)c2c(C)c1Cc1ccccc1.Cl [TCMDC-137670] | 0 (key: 1: YES; 0: NO) | 51.61% | 57.72% | 3020 nM | 3020 nM | 0.03 µM | 30 nM | 169 nM | – | – | – | – | –
CCc1cc2c3c(N)nc(N)nc3ccc2n1CC [TCMDC-137851] | – | 53.59% | 40.48% | – | 986 nM | – | 22.4 nM | 2.53 nM | 0 (0: NO) | 990 nM | 0.0224 µM | 0.0224 µM | –
COc1cc(Nc2ncc3c(C)nc(-c4cccc(Nc5ccc(CN6CCS(=O)(=O)CC6)cc5)c4)n3n2)cc(OC)c1OC [TCMDC-136003] | – | 93.24% | 100.90% | – | 175 nM | – | 30900 nM | 1400 nM | 1 (1: YES) | 180 nM | – | – | 30.90 µM
Br.CC1(C)NC(N)=NC(=N)N1OCCCOc1ccccc1Cl [TCMDC-131739] | 0 (key: 1: YES; 0: NO) | 73.15% | 48.60% | 3130 nM | 3130 nM | 0.001 µM | 1 nM | < 0.2 nM | – | – | – | – | –
Cc1[nH]c(C)c(-c2ccc(Oc3ccc(F)cc3)cc2)c(=O)c1Br [TCMDC-137402] | – | 94.48% | 95.56% | – | 57 nM | – | 3800 nM | 30 nM | 1 (1: YES) | 56.7 nM | 3.80 µM | 3.80 µM | –
